Assay results taken from patent US20210038607A1, “OXADIAZOLYLTHIOPHENE DERIVATIVES USEFUL AS HISTONE DEACETYLASE INHIBITORS” (Karus Therapeutics Limited, priority 2018, published 2021).

Test system: acetylated histone H3 in A549 lung adenocarcinoma cells
Test: Acetylated histone H3 in-cell western (ICW) assay
Type: cell-based
Conditions: Homo sapiens, 16 h exposure, relative to 40 μM Trichostatin A positive control, read-out: EC50 Ac-histone H3, A549 cells
Procedure: Acetylated α-Tubulin and Histone H3 in-Cell Western (ICW) Assays
A549 cells were maintained in DMEM (Life Technologies)+10% FBS+2 mM glutamine & penicillin (10 μg/mL) and streptomycin ([…]. 10,000 A549 cells per well were plated into 96 well tissue culture plates (Corning) and incubated at 37° C. overnight in a humidified atmosphere containing 5% CO2 prior to addition of compounds. Compounds (dissolved in 100% DMSO) were diluted into cell culture media at 2× final assay concentration. 2× compound or DMSO (negative control) were added to cells (final DMSO concentration 0.4%). Untreated control wells received media. For acetylated α-tubulin assays, 40 μM scriptaid was used as a positive control. For acetylated histone H3 assays, 40 μM Trichostatin A (TSA) was used as a positive control. Cells were exposed to compound at 37° C. in a humidified atmosphere containing 5% CO2 for 16 h.
Measurement of the impact of compounds on levels of acetylated α-tubulin and histone H3 was performed using specific antibodies and near-infrared immunofluorescent dyes. Briefly, media was removed from wells of assay plates. Cells were washed once with PBS and fixed in 3.7% formaldehyde PBS solution at room temperature for 20 min. Cells were then permeabilised by washing 5 times in 0.1% triton-X-100 PBS at room temperature with gentle agitation for 5 min per wash. Non-specific antibody staining was blocked by the addition of Odyssey blocking buffer (Li-Cor) for 1.5 h at room temperature with gentle agitation. Cells were then incubated with primary antibody (mouse monoclonal anti-acetylated α-tubulin (clone 6-11B-1), Sigma or rabbit polyclonal anti-acetylated histone H3, Millipore) diluted in Odyssey blocking buffer at 4° C. with gentle shaking overnight (no antibody control and secondary antibody only wells were incubated with Odyssey blocking buffer only). Cells were washed five times with 0.1% tween PBS and labelled with secondary antibody (IR dye 800CW-conjugated goat anti mouse IgG or -goat anti rabbit IgG, Li-Cor) and cell stains Sapphire700 (Li-Cor) and Draq5 (Biostatus) diluted in Odyssey blocking buffer at room temperature in the dark with gentle shaking for 1 h (no antibody control wells were incubated with Odyssey blocking buffer only and secondary antibody only with diluted secondary antibody but no cell stains). Cells were washed with 0.1% Tween PBS five times and scanned using a Li-Cor Odyssey SA plate reader in 700 and 800 nm channels. Acetylated α-tubulin or histone H3 signal was normalised to cell number using the cell stain signal. Percentage increase in acetylated α-tubulin or histone H3 after compound treatment over the mean of DMSO treated controls, relative to scriptaid and TSA positive controls, respectively was calculated. EC50 values were calculated using GraphPad Prism software and nonlinear regression with 0% bottom and 100% top constraints.

SMILES | EC50
NC(=O)c1ccc(N(Cc2ccc(-c3noc(C(F)(F)F)n3)s2)c2cnccn2)nn1 [Example DQ, 6-[(Pyrazin-2-yl)({5-[5-(trifluoromethyl)-1,2,4-oxadiazol-3-yl]thiophen-2-yl}methyl)amino]pyridazine-3-carboxamide] | ≥ 10 µM
FC(F)(F)c1cnnc(N(Cc2ccc(-c3noc(C(F)(F)F)n3)s2)c2cccnn2)c1 [Example ER, N-(Pyridazin-3-yl)-5-(trifluoromethyl)-N-({5-[5-(trifluoromethyl)-1,2,4-oxadiazol-3-yl]thiophen-2-yl}methyl)pyridazin-3-amine] | ≥ 10 µM
N#Cc1cnnc(N(Cc2ccc(-c3noc(C(F)(F)F)n3)s2)c2cnccn2)c1 [Example EE, 6-[(Pyrazin-2-yl)({5-[5-(trifluoromethyl)-1,2,4-oxadiazol-3-yl]thiophen-2-yl}methyl)amino]pyridazine-4-carbonitrile] | ≥ 10 µM
O=C(c1cnnc(N(Cc2ccc(-c3noc(C(F)(F)F)n3)s2)c2cnccn2)c1)N1CCCC1 [Example EA, N-(Pyrazin-2-yl)-5-(pyrrolidine-1-carbonyl)-N-({5-[5-(trifluoromethyl)-1,2,4-oxadiazol-3-yl]thiophen-2-yl}methyl)pyridazin-3-amine] | ≥ 10 µM
O=C(O)c1cnnc(N(Cc2ccc(-c3noc(C(F)(F)F)n3)s2)c2cc(C(F)(F)F)cnn2)c1 [Example ES, 6-[({5-[5-(Trifluoromethyl)-1,2,4-oxadiazol-3-yl]thiophen-2-yl}methyl)[5-(trifluoromethyl)pyridazin-3-yl]amino]pyridazine-4-carboxylicacid] | ≥ 10 µM
O=C(c1ccc(N(Cc2ccc(-c3noc(C(F)(F)F)n3)s2)c2cnccn2)nn1)N1CC(O)(C(F)(F)F)C1 [Example FK, 1-{6-[(Pyrazin-2-yl)({5-[5-(trifluoromethyl)-1,2,4-oxadiazol-3-yl]thiophen-2-yl}methyl)amino]pyridazine-3-carbonyl}-3-(trifluoromethyl)azetidin-3-ol] | ≥ 10 µM
O=C(c1ccc(N(Cc2ccc(-c3noc(C(F)(F)F)n3)s2)c2cnccn2)nn1)N1CCC2(COC2)C1 [Example FJ, 6-{2-Oxa-6-azaspiro[3.4]octane-6-carbonyl}-N-(pyrazin-2-yl)-N-({5-[5-(trifluoromethyl)-1,2,4-oxadiazol-3-yl]thiophen-2-yl}methyl)pyridazin-3-amine] | ≥ 10 µM
FC(F)(F)c1cnnc(N(Cc2ccc(-c3noc(C(F)(F)F)n3)s2)c2cc(C(F)(F)F)cnn2)c1 [Example EU, 5-(Trifluoromethyl)-N-({5-[5-(trifluoromethyl)-1,2,4-oxadiazol-3-yl]thiophen-2-yl}methyl)-N-[5-(trifluoromethyl)pyridazin-3-yl]pyridazin-3-amine] | ≥ 10 µM
[O-][S+]1CCN(Cc2ccc(N(Cc3ccc(-c4noc(C(F)(F)F)n4)s3)c3cnccn3)nn2)CC1 [Example FO, 4-({6-[(Pyrazin-2-yl)({5-[5-(trifluoromethyl)-1,2,4-oxadiazol-3-yl]thiophen-2-yl}methyl)amino]pyridazin-3-yl}methyl)-1lambda4-thiomorpholin-1-one] | ≥ 10 µM
FC(F)(F)c1cnnc(N(Cc2ccc(-c3noc(C(F)(F)F)n3)s2)c2cnccn2)c1 [Example EF, N-(Pyrazin-2-yl)-5-(trifluoromethyl)-N-({5-[5-(trifluoromethyl)-1,2,4-oxadiazol-3-yl]thiophen-2-yl}methyl)pyridazin-3-amine] | ≥ 10 µM
FC(F)(F)c1nc(-c2ccc(CN(c3cnccn3)c3cnccn3)s2)no1 [Example BA, N-(Pyrazin-2-yl)-N-({5-[5-(trifluoromethyl)-1,2,4-oxadiazol-3-yl]thiophen-2-yl}methyl)pyrazin-2-amine] | ≥ 10 µM
O=C(c1ccc(N(Cc2ccc(-c3noc(C(F)(F)F)n3)s2)c2cnccn2)nn1)N1CCCC1 [Example FI, N-(Pyrazin-2-yl)-6-(pyrrolidine-1-carbonyl)-N-({5-[5-(trifluoromethyl)-1,2,4-oxadiazol-3-yl]thiophen-2-yl}methyl)pyridazin-3-amine] | ≥ 10 µM
O=C(c1cnnc(N(Cc2ccc(-c3noc(C(F)(F)F)n3)s2)c2cnccn2)c1)N1CC[S+]([O-])CC1 [Example FU, 4-{6-[(Pyrazin-2-yl)({5-[5-(trifluoromethyl)-1,2,4-oxadiazol-3-yl]thiophen-2-yl}methyl)amino]pyridazine-4-carbonyl}-1lambda4-thiomorpholin-1-one] | ≥ 10 µM
Cc1cnc(N(Cc2ccc(-c3noc(C(F)(F)F)n3)s2)c2cnccn2)cn1 [Example BH, 5-Methyl-N-(pyrazin-2-yl)-N-({5-[5-(trifluoromethyl)-1,2,4-oxadiazol-3-yl]thiophen-2-yl}methyl)pyrazin-2-amine] | ≥ 10 µM
COc1cncc(N(Cc2ccc(-c3noc(C(F)(F)F)n3)s2)c2cc(C(F)(F)F)cnn2)n1 [Example EN, N-(6-Methoxypyrazin-2-yl)-5-(trifluoromethyl)-N-({5-[5-(trifluoromethyl)-1,2,4-oxadiazol-3-yl]thiophen-2-yl}methyl)pyridazin-3-amine] | ≥ 10 µM
O=C(c1cnnc(N(Cc2ccc(-c3noc(C(F)(F)F)n3)s2)c2cnccn2)c1)N1C[C@@H]2C[C@H]1CO2 [Example FV, 5-[(1S,4S)-2-Oxa-5-azabicyclo[2.2.1]heptane-5-carbonyl]-N-(pyrazin-2-yl)-N-({5-[5-(trifluoromethyl)-1,2,4-oxadiazol-3-yl]thiophen-2-yl}methyl)pyridazin-3-amine] | ≥ 10 µM

Other lines, results leading:

EC50 | SMILES
≥ 10 µM | COC1(C(F)(F)F)CN(C(=O)c2cnnc(N(Cc3ccc(-c4noc(C(F)(F)F)n4)s3)c3cnccn3)c2)C1 [Example GL, 5-[3-Methoxy-3-(trifluoromethyl)azetidine-1-carbonyl]-N-(pyrazin-2-yl)-N-({5-[5-(trifluoromethyl)-1,2,4-oxadiazol-3-yl]thiophen-2-yl}methyl)pyridazin-3-amine]
≥ 10 µM | O=C(c1cnnc(N(Cc2ccc(-c3noc(C(F)(F)F)n3)s2)c2cnccn2)c1)N1CCC12COC2 [Example GF, 5-{6-Oxa-1-azaspiro[3.3]heptane-1-carbonyl}-N-(pyrazin-2-yl)-N-({5-[5-(trifluoromethyl)-1,2,4-oxadiazol-3-yl]thiophen-2-yl}methyl)pyridazin-3-amine]
≥ 10 µM | CN(C)C1CN(C(=O)c2cnnc(N(Cc3ccc(-c4noc(C(F)(F)F)n4)s3)c3cnccn3)c2)C1 [Example FX, 5-[3-(Dimethylamino)azetidine-1-carbonyl]-N-(pyrazin-2-yl)-N-({5-[5-(trifluoromethyl)-1,2,4-oxadiazol-3-yl]thiophen-2-yl}methyl)pyridazin-3-amine]
≥ 10 µM | O=C(c1cnnc(N(Cc2ccc(-c3noc(C(F)(F)F)n3)s2)c2cnccn2)c1)N1CC(C(F)(F)F)C1 [Example GJ, N-(Pyrazin-2-yl)-N-({5-[5-(trifluoromethyl)-1,2,4-oxadiazol-3-yl]thiophen-2-yl}methyl)-5-[3-(trifluoromethyl)azetidine-1-carbonyl]pyridazin-3-amine]
≥ 10 µM | O=C(c1cnnc(N(Cc2ccc(-c3noc(C(F)(F)F)n3)s2)c2cnccn2)c1)N1CC(C(F)F)C1 [Example GK, 5-[3-(Difluoromethyl)azetidine-1-carbonyl]-N-(pyrazin-2-yl)-N-({5-[5-(trifluoromethyl)-1,2,4-oxadiazol-3-yl]thiophen-2-yl}methyl)pyridazin-3-amine]
≥ 10 µM | FC(F)(F)c1nc(-c2ccc(CN(c3cnccn3)c3cc(CN4CCOCC4)ccn3)s2)no1 [Example GI, N-{4-[(Morpholin-4-yl)methyl]pyridin-2-yl}-N-({5-[5-(trifluoromethyl)-1,2,4-oxadiazol-3-yl]thiophen-2-yl}methyl)pyrazin-2-amine]
≥ 10 µM | O=C(c1nccnc1N(Cc1ccc(-c2noc(C(F)(F)F)n2)s1)c1cnccn1)N1CCC1 [Example GP, 3-(Azetidine-1-carbonyl)-N-(pyrazin-2-yl)-N-({5-[5-(trifluoromethyl)-1,2,4-oxadiazol-3-yl]thiophen-2-yl}methyl)pyrazin-2-amine]
≥ 10 µM | O=C(c1cnnc(N(Cc2ccc(-c3noc(C(F)(F)F)n3)s2)c2cnccn2)c1)N1C[C@H]2C[C@@H]1CO2 [Example FW, 5-[(1R,4R)-2-Oxa-5-azabicyclo[2.2.1]heptane-5-carbonyl]-N-(pyrazin-2-yl)-N-({5-[5-(trifluoromethyl)-1,2,4-oxadiazol-3-yl]thiophen-2-yl}methyl)pyridazin-3-amine]
